Source: PubChem BioAssay (NCI)
Values joined by “and” are separate entries in the source; they are usually repeats but may differ in a detail not shown here. Equal entries are not always repeated.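 Following 48 hours of exposure in 96-well plates, responses at five concentrations were used to interpolate endpoints linearly. The concentration for 50% growth inhibition is given as GI50. TGI denotes the concentration required for complete inhibition of growth.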

Assays:
Test in all cases: NCI anticancer screen, dose series, 48 h
[1] = tested on: HS 578T breast
[2] = tested on: MDA-MB-231 breast
[3] = tested on: RPMI-8226 leukemia
[4] = tested on: RXF 393 renal
[5] = tested on: OVCAR-4 ovarian
[6] = tested on: MCF7 breast
[7] = tested on: SN12C renal
[8] = tested on: UACC-62 melanoma
[9] = tested on: HCT-116 colon
[10] = tested on: M14 melanoma

Structure (SMILES)	GI50 [1]	TGI [1] [µM]	GI50 [2] [µM]	TGI [2] [µM]	GI50 [3] [nM]	TGI [3] [µM]	GI50 [4] [µM]	TGI [4] [µM]	GI50 [5] [µM]	TGI [5] [µM]	GI50 [6]	TGI [6] [µM]	GI50 [7] [nM]	TGI [7] [µM]	GI50 [8] [µM]	TGI [8] [µM]	GI50 [9]	TGI [9] [µM]	GI50 [10]	TGI [10] [µM]
COC(=O)[C@H](CCCCNC(=O)OCc1ccccc1)NC(=O)[C@@H](NC(=O)Nc1cc(C(F)(F)F)cc(C(F)(F)F)c1)C(C)C	> 10 µM	> 10	> 10	> 10	> 10000	> 10	> 10	> 10	> 10	> 10	> 10 µM	> 10	> 10000	> 10	> 10	> 10	> 10 µM	> 10	> 10 µM	> 10
COc1cccc(-c2nn(-c3ccccc3)cc2-c2ccnc(NCCCNS(=O)(=O)c3ccc(C(F)(F)F)cc3)c2)c1	5.41 µM	> 100	4.98	> 100	3630	> 100	3.01	> 100	4.36	> 100	3.87 µM	> 100	8400	> 100	7.08	> 100	4.18 µM	> 100	4.46 µM	> 100
NC(Cc1c[nH]c2cccc(F)c12)C(=O)O (stereo not drawn)	62.9 µM and 501 µM	> 4500	545	2300		> 4500	1320	> 4500		> 4500	35.4 µM and 327 µM	1650	959000	> 4500	582	1990	43.8 µM and 305 µM	1000	59.9 µM and 590 µM	> 4500
CCC(C(=O)[C@@H](C)[C@@H](O)[C@H](C)[C@@H]1O[C@@H]([C@@H](CC)C(=O)ONC(=O)c2ccccc2)CC[C@@H]1C)[C@H]1O[C@]2(C=CC(=O)[C@]3(CC[C@@](C)([C@H]4CC[C@](O)(CC)[C@H](C)O4)O3)O2)[C@H](C)C[C@@H]1C (stereo partly drawn)	0.0991 µM	2.58	0.295	1.63	83.8	2.3	0.0957	1.74	1.07	> 40.1	0.0869 µM	1.62	61.4	1.49	1.25	2.93	0.36 µM	1.91	1.32 µM	7.5
Cc1nn(-c2ccccc2)c2nc(C)n(-c3ccc(Br)cc3)c(=O)c12	0.371 µM	> 100	1.45	> 100	571	> 54.6	0.286	0.972	1.56	> 100	0.356 µM	> 100	721	> 100	0.428	> 100	0.425 µM	> 65.4	0.429 µM	> 100
CC[Si](CC)(CC)OC1[C@@H](O[Si](CC)(CC)CC)[C@@H](CNC(=O)NC)O[C@H]1n1cnc2c(NC(=O)Nc3ccccc3)ncnc21 (stereo partly drawn)	2.66 µM	39.5	4.18	56.1	2130	5.33	2.36	4.67	3.41	> 100	3.24 µM	14.3	2040	4.92	2.88	25.7	3.26 µM	15.2	3.75 µM	> 100
Cc1ccc(C2C3Cc4ccccc4C3=NN2c2ccc(S(=O)(=O)NC(=O)Nc3ccccc3)cc2)cc1 (stereo not drawn)	17.4 µM	49.9	10.8	22.7	15000	47.2	16	38.5	17.9	50	17.1 µM	> 100	14000	26.9	11.2	23.2	3.4 µM	49.1	17 µM	40.3
C=CCN1C(=O)[C@]2(SC1=S)[C@H](c1cccc(Cl)c1)CN(C)[C@]21C(=O)NC2C=CC(Cl)=C[C@H]21 (stereo partly drawn)	3.6 µM	21.2	2	8.72	1640	4.97	2.14	5.8	2.13	10.2	2.68 µM	11.7	1810	3.77	3.7	19.1	2.88 µM	13.9	2.35 µM	11.9
CCC(C)C(=O)OC1CCC=C2C=CC(C)C(CCC3CC(O)CC(=O)O3)C21 (stereo not drawn)		17.4		> 64.7		> 100		> 80.6		> 100		> 72.2		> 100		> 100		> 100		> 27.5
O=C(CCl)Nc1ccc(Cc2ccc(NC(=O)CCl)cc2)cc1	5.37 µM	> 100	1.54	5.06	1670	4.78	1.43	3.07	1.42	3.44	1.54 µM	> 100	2380	> 100	1.53	3.34	0.44 µM	1.03	1.23 µM	3.2
CC(=O)/C=C/c1ccc(N(CCO)Cc2ccc(C(C)(C)C)cc2)cc1	80 µM	297	87.9	225	28200	72.5	65.5	208	43.6	175	26.5 µM	118	38700	157	46.6	176	30 µM	125	48.9 µM	200
c1ccc2c(c1)[nH]c1c3ccccc3sc21		> 100		> 100		> 100		> 100		> 100		> 100		> 100		> 100		> 100		> 100
